# Laboratory results reported in ChEMBL document CHEMBL1141991, “Functionalized dendrimers as endotoxin sponges” (Bioorg Med Chem Lett, 2005).
# How the values were obtained:
# [1] = Inhibitory concentration against lipopolysaccharide in BC fluorescenced murine macrophages J774A; format: functional, Mus musculus
# Mus musculus = species: Mus musculus; assay: Effective dose against lipopolysaccharide in BC fluorescenced murine macrophages J774A; format: functional
IC50 [1] [µM],Sequence,ED50 (Mus musculus) [µM]
210,POLYMYXIN B [listing 1 of 2 here],–
–,POLYMYXIN B [listing 2 of 2 here],0.31
